{"source": "patent US20200397686A1", "about": "“Methods of Reducing Burning or Stinging Sensation Attributed to Certain Compositions” (Monell Chemical Senses Center, priority 2018, published 2020)", "test_system": "burning sensation in the mouth produced by use of LISTERINE mouthwash", "assay": "Reduction of perceived burning sensation after rinsing with LISTERINE mouthwash with or without sophorolipid (six subjects)", "format": "in vivo, human", "settings": "five of six subjects; treated mouthwash (sophorolipid added) vs control mouthwash with no sophorolipid; rinse held in mouth 10-60 seconds before spitting; self-reported", "description": "FIG. 1 is a graph that illustrates that a sophorolipid, having an oleic acid fatty acid tail, when added to mouthwash blocks or inhibits the burning sensation taste produced by use of LISTERINE® mouthwash. As discussed in Example 1 below, six subjects were instructed to rinse their mouths with either control (mouthwash with no sophorolipid) or the treated mouthwash (with 10 μM to 100 μM of the sophorolipid). Subjects reported the results as perceived burning sensation. Five of six subjects reported reductions of at least 50% in perceived burn produced by use of the treated mouthwash vs. use of the control.\nSix subjects were involved in the study.\nA final concentration of […] of the above noted sophorolipid was added to the mouthwash. The mouthwash with no sophorolipid added was the control. The subjects were told to rinse their mouths with either control or the treated mouthwash and hold it in their mouths for 10-60 seconds before spitting. Subjects were told to report the results as perceived burning sensation.\nAs reported in the graph of FIG. 1, five of six subjects reported reductions of at least 50% in perceived burn produced by use of the […]."}
{"substance": "sophorolipid", "values": [{"measurement": "reduction in perceived burn", "result": "at least 50%"}]}
